From PubChem BioAssay (NCI)
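Briefly, cells in 96-well plates were exposed to five compound concentrations for 48 h, and endpoints were estimated by linear interpolation. GI50 is the concentration that inhibits growth by half. Definition used: TGI = concentration required for complete inhibition of growth.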

What was measured:
Experiment in all cases: DTP human tumour cell line panel, 48 h
SF-539 CNS = system: SF-539 CNS
PC-3 prostate = system: PC-3 prostate
A549 NSCLC = system: A549 NSCLC
SF-268 CNS = system: SF-268 CNS
COLO 205 colon = system: COLO 205 colon
786-0 renal = system: 786-0 renal
OVCAR-3 ovarian = system: OVCAR-3 ovarian
MDA-MB-231 breast = system: MDA-MB-231 breast
MDA-MB-435 = system: MDA-MB-435
SR leukemia = system: SR leukemia
NCI-H23 lung = system: NCI-H23 lung
M14 melanoma = system: M14 melanoma
HCT-15 colon = system: HCT-15 colon
SNB-19 CNS = system: SNB-19 CNS
SW-620 colon = system: SW-620 colon
ACHN renal = system: ACHN renal
KM12 colon = system: KM12 colon
SK-OV-3 ovarian = system: SK-OV-3 ovarian
CCRF-CEM leukemia = system: CCRF-CEM leukemia
IGROV1 ovarian = system: IGROV1 ovarian
NCI-H522 lung = system: NCI-H522 lung
NCI-H226 lung = system: NCI-H226 lung
HOP-62 NSCLC = system: HOP-62 NSCLC
OVCAR-5 ovarian = system: OVCAR-5 ovarian
K-562 leukemia = system: K-562 leukemia
SF-295 CNS = system: SF-295 CNS
UACC-62 melanoma = system: UACC-62 melanoma
HCC-2998 colon = system: HCC-2998 colon

Compound: COc1ccc(/C=C2/CCc3cc4ccc(OC)cc4[o+]c32)c(O)c1
- GI50 (SF-539 CNS): 15.1 µM
- TGI (SF-539 CNS): 31.8 µM
- GI50 (PC-3 prostate): 2.74 µM
- TGI (PC-3 prostate): 16.2 µM
- GI50 (A549 NSCLC): 18.5 µM
- TGI (A549 NSCLC): 41.6 µM
- GI50 (SF-268 CNS): 2.8 µM
- TGI (SF-268 CNS): 9.83 µM
- GI50 (COLO 205 colon): 2.59 µM
- TGI (COLO 205 colon): 10.7 µM
- GI50 (786-0 renal): 3.97 µM
- TGI (786-0 renal): 19.8 µM
- GI50 (OVCAR-3 ovarian): 2.48 µM
- TGI (OVCAR-3 ovarian): 6.09 µM
- GI50 (MDA-MB-231 breast): 3.75 µM
- TGI (MDA-MB-231 breast): 18.8 µM
- GI50 (MDA-MB-435): 1.78 µM
- TGI (MDA-MB-435): 3.47 µM
- GI50 (SR leukemia): 3.04 µM
- TGI (SR leukemia): 45.6 µM
- GI50 (NCI-H23 lung): 10.4 µM
- TGI (NCI-H23 lung): 30.1 µM
- GI50 (M14 melanoma): 3.1 µM
- TGI (M14 melanoma): 14.6 µM
- GI50 (HCT-15 colon): 2.25 µM
- TGI (HCT-15 colon): 6.03 µM
- GI50 (SNB-19 CNS): 8.48 µM
- TGI (SNB-19 CNS): 25.6 µM
- GI50 (SW-620 colon): 2.23 µM
- TGI (SW-620 colon): 5.09 µM
- GI50 (ACHN renal): 4.15 µM
- TGI (ACHN renal): 15.8 µM
- GI50 (KM12 colon): 2.65 µM
- TGI (KM12 colon): 7.44 µM
- GI50 (SK-OV-3 ovarian): 12.3 µM
- TGI (SK-OV-3 ovarian): 25.3 µM
- GI50 (CCRF-CEM leukemia): 3.88 µM
- TGI (CCRF-CEM leukemia): > 100 µM
- GI50 (IGROV1 ovarian): 2.71 µM
- TGI (IGROV1 ovarian): 27.6 µM
- GI50 (NCI-H522 lung): 12.7 µM
- TGI (NCI-H522 lung): 30.5 µM
- GI50 (NCI-H226 lung): 12.3 µM
- TGI (NCI-H226 lung): 25.7 µM
- GI50 (HOP-62 NSCLC): 13.1 µM
- TGI (HOP-62 NSCLC): 28 µM
- GI50 (OVCAR-5 ovarian): 17.2 µM
- TGI (OVCAR-5 ovarian): 40.3 µM
- GI50 (K-562 leukemia): 11.4 µM
- TGI (K-562 leukemia): 93.8 µM
- GI50 (SF-295 CNS): 16.3 µM
- TGI (SF-295 CNS): 38 µM
- GI50 (UACC-62 melanoma): 5.2 µM
- TGI (UACC-62 melanoma): 19.9 µM
- GI50 (HCC-2998 colon): 15.3 µM
- TGI (HCC-2998 colon): 32.6 µM
